Measured values reported in patent US8288383B2, “3-methyl-2- ( (2S) -2- (4- (3-methyl-L, 2, 4-oxadiazol-5-YL) phenyl) morpholino) -6- (pyrim-idin-4-yl) pyrimidin-4 (3H) -one as tau protein kinase inhibitor” (Sanofi, priority 2007, dated 2012).
Where two headings read alike, the source gives them in different places.

How the values were obtained:
[1] = molecular target: CYP2D6 (Homo sapiens, UniProt P10635); test: Inhibitory activity on CYP2D6 (human recombinant CYPs); format: in vitro ADME; conditions: human recombinant CYP2D6, substrate ethylene glycol ester of luciferin-6'-methyl ether, 37° C., read-out: CYP 2D6 inhibition, IC50 value
Chain of CYP2D6 (P10635 whole entry): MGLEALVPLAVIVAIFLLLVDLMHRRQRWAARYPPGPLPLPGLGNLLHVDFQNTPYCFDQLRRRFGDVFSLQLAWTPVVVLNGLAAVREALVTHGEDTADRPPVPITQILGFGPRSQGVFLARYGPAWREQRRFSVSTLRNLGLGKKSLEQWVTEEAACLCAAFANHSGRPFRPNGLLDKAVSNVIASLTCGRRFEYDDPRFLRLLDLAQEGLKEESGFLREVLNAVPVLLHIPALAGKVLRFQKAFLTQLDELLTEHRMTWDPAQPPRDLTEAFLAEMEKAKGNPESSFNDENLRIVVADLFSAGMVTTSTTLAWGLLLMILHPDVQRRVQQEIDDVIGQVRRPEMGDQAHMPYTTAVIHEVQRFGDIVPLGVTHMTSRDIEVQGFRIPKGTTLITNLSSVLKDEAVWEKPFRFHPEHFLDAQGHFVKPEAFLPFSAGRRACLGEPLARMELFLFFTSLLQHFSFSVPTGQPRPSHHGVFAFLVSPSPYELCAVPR
Experimental: The purpose of this pharmacokinetic study was to investigate the inhibitory effects of test compounds on the specific metabolic activity of human CYP isozymes using human recombinant CYPs in vitro. […] The specific substrate and positive control is ethylene glycol ester of luciferin-6′-methyl ether and quinidine, respectively. The substrate for the CYP isozyme was incubated with human recombinant CYPs in the presence or absence of the test compounds and the metabolic activity of the CYP isozyme was determined. The reaction mixture was preincubated at 37° C. without NADPH generating system. The reaction was started by the addition of NADPH generating system, and then terminated by the addition of acetonitrile. The activities of the human CYP isozymes were measured by fluorescence signal (CYP2D6) of reaction mixture. IC50 value for each compound was calculated by setting the data of reaction mixture without compound as 100% activity.

[2] = system: tau phosphorylation; test: Inhibitory activity on tau phosphorylation in vivo (pS396 Western blot of mouse cortex); conditions: 10 mg/kg p.o., male CD-1 mice, cortex removed after 1 h, pS396 antibody; ** = statistically significant
Experimental: Test compound was administrated to male CD-1 mice of 5-6 weeks weighing 25-35 g (Charles River Japan, inc.) at 10 mg/kg p.o. (0.5% polyethylen glycol sorbitan monolaurate 80 (Tween80)/water suspension) and after 1 h, mice were decapitated and cortex was promptly removed, followed by being frozen in liquid N2. […] Protein concentrations were determined using DC protein assay kit (BIO-RAD). Supernatants were diluted with sample buffer (62.5 mM Tris-HCl, 25% glycerol, 2% SDS, 0.01% Bromophenol Blue, pH6.8) to adjust the protein concentrations around […] and then boiled for […]. Samples (10 μg) were separated on 10% sodium dodecyl sulfate-polyacrylamide electrophoresis (SDS-PAGE) mini slab gels and transferred onto polyvinylidene difluoride (PVDF) membranes. Membranes were incubated with phosphate buffered saline (PBS) containing 5% non-fat milk for 1h at room temperature and then probed with pS396 anti-body (BIOSOURCE) over night at 4° C. Anti-rabbit IgG horseradish peroxidase (HRP) conjugated anti-body (Promega) was used as secondary anti-body. Membranes were visualized by Enhanced ChemiLuminescence (ECL) kit (Amerasham Bioscience) and detected by LAS1000 (Fuji Photo Film).

[3] = probe ethylene glycol ester of luciferin-6'-methyl ether

SMILES	IC50 [1, 3]	in vivo % phosphorylation against vehicle [2]	melting point	IC50 [1]
Cn1c(N2CCOC(c3nc(-c4ccccc4)no3)C2)nc(-c2ccncn2)cc1=O (centres unmarked) [Compound 1, 1-Methyl-2-[2-(3-phenyl-[1,2,4]oxadiazol-5-yl)-morpholin-4-yl]-1H-[4,4′]bipyrimidinyl-6-one]	> 50 µM	92.12%		
Cn1c(N2CCOC(c3noc(-c4ccccc4)n3)C2)nc(-c2ccncn2)cc1=O (centres unmarked) [Compound 2, 1-Methyl-2-[2-(5-phenyl-[1,2,4]oxadiazol-3-yl)-morpholin-4-yl]-1H-[4,4′]bipyrimidinyl-6-one]	> 25 µM			
Cn1ccnc1-c1ccc(C2CN(c3nc(-c4ccncn4)cc(=O)n3C)CCO2)cc1 (centres unmarked) [Compound 4, 1-Methyl-2-{2-[4-(1-methyl-1H-imidazol-2-yl)-phenyl]-morpholin-4-yl}-1H-[4,4′]bipyrimidinyl-6-one]	> 50 µM		179.8 °C (dec.)	
Cc1noc(-c2ccc([C@H]3CN(c4nc(-c5ccncn5)cc(=O)n4C)CCO3)cc2)n1 [Compound of the present invention, 3-Methyl-2-((2S)-2-(4-(3-methyl-1,2,4-oxadiazol-5-yl)phenyl)morpholino)-6-(pyrimidin-4-yl)pyrimidin-4(3H)-one]		69.86** %	219 °C (dec.)	> 50 µM
